# Values of other authors in US20250312278A1, “BRIVARACETAM PHARMACEUTICAL COMPOSITION, PREPARATION METHOD THEREFOR AND USE THEREOF” (SHANGHAI BOCIMED PHARMACEUTICAL CO., LTD., priority 2020, published 2025).
# Read-outs that look alike come from different tables or passages of the source.
# Legend:
# [1] = in vivo
smiles,measurement,setting,value
"CCC[C@@H]1CC(=O)N(C(CC)C(N)=O)C1 (stereo partly drawn) [Brivaracetam, (2S)-2-[(4R)-2-oxo-4-propyltetrahydron-1H-pyrro-1-yl] butanamide]",solubility,buffer solution with a pH of 4.5,850 mg/mL
same,solubility,buffer solution with a pH of 7.4,840 mg/mL
same,solubility,hydrochloric acid solution with a pH of 1.2,850 mg/mL
same,solubility,water,700 mg/mL
same,terminal half-life period,[1],9 h
